Results: patent US20250195666A1, “MIR-142 COMPOUNDS AND USES THEREOF” (City of Hope, priority 2021, published 2025)

Tested on: miR-142^−/−BCR-ABL LSKs
Procedure: LSKs from diseased miR-142 null and miR-142 wt BCR-ABL mice were treated with CpG-M-miR-142 (2 μM) or SCR±NIL (2 μM) for 72 h.

Q: How did the apoptosis turn out when Cc1cn(-c2cc(NC(=O)c3ccc(C)c(Nc4nccc(-c5cccnc5)n4)c3)cc(C(F)(F)F)c2)cn1 [NIL, nilotinib] was run?
A: lower apoptosis

Q: And the cell growth?
A: higher cell growth
